Laboratory results published in ChEMBL document CHEMBL3132773, “Synthesis and biological evaluation of novel 2,3-dihydro-1H-1,5-benzodiazepin-2-ones; potential imaging agents of the metabotropic glutamate 2 receptor” (Medchemcomm, 2013).

Assays:
[1] = biological target: Metabotropic glutamate receptor 2 (Homo sapiens, UniProt Q14416); test: Non-competitive antagonist activity at human recombinant mGluR2 expressed in Chem-1 cell membrane assessed as inhibition of L-glutamate-induced [35S]GTPgammaS binding after 30 mins by liquid scintillation counting analysis; format: functional, cell membranes
Albumin = Albumin (Homo sapiens, UniProt P02768); test: Protein binding in human serum albumin by chromatography; format: ADME; conditions: read-out: PPB (converted)
[2] = Lipophilicity, log P of the compound by HPLC analysis; format: physicochemical

Albumin, sequence (P02768 whole entry): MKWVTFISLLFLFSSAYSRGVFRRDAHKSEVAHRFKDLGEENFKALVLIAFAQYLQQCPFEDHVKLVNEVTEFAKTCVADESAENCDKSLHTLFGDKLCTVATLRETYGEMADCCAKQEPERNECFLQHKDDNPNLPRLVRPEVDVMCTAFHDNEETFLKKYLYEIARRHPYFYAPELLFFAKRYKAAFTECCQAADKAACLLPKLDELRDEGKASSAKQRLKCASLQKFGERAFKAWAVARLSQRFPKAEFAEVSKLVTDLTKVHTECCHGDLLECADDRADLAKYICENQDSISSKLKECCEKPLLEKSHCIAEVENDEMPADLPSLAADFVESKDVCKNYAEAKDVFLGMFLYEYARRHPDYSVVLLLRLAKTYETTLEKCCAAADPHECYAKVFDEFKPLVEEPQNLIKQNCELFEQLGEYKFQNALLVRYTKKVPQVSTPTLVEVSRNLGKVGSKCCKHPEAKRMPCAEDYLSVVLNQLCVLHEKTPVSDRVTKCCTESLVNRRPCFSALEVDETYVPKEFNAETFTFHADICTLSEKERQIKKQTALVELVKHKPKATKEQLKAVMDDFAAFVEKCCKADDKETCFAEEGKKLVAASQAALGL
Metabotropic glutamate receptor 2, sequence (Q14416 whole entry): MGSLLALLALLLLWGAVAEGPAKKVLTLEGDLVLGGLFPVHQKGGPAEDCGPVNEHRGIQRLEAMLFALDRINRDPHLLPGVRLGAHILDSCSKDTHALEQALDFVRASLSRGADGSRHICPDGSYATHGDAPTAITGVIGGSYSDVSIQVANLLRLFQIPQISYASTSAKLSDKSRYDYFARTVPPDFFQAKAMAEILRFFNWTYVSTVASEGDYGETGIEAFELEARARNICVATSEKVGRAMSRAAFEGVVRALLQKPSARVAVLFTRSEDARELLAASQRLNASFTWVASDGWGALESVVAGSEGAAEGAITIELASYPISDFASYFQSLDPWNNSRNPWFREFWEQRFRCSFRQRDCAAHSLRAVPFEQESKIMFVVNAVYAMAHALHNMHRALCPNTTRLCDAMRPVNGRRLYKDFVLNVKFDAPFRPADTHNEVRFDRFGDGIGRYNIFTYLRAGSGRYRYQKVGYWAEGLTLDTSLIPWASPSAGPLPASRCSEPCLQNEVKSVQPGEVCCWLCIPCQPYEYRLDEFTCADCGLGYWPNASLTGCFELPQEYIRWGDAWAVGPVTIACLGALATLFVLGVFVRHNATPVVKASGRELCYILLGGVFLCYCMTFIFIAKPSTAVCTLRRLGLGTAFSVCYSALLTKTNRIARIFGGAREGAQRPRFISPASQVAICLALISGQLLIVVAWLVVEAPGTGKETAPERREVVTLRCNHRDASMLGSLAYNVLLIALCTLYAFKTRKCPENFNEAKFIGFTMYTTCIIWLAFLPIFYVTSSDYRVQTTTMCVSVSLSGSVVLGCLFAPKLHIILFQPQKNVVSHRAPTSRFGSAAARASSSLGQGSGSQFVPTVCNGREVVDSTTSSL

SMILES	IC50 [1]	fraction unbound (Albumin)	logP [2]
COc1cc2c(cc1-c1ccc(I)cc1)NC(=O)CC(c1cccc(-n3ccnc3)c1)=N2	89 nM	0.0168	5.72
O=C1CC(c2cccc(-n3ccnc3)c2)=Nc2ccc(-c3ccc(I)cc3)cc2N1	133 nM	0.0133	5.77
O=C1CC(c2cccc(-n3ccnc3)c2)=Nc2ccc(I)cc2N1	89 nM	0.0508	4.6
O=C1CC(c2cccc(-n3ccnc3)c2)=Nc2ccc(-c3cccc(I)c3)cc2N1	132 nM	0.0154	5.73
O=C1CC(c2cccc(-n3ccnc3)c2)=Nc2cc(OCCCF)c(C(F)(F)F)cc2N1	100 nM	0.0488	5.06
Clc1cccc(Cl)c1/C(=C/n1cncn1)OC1CCCCCC1	533 nM		
COc1cc2c(cc1C(F)(F)F)NC(=O)CC(c1cccc(-n3ccnc3)c1)=N2	91 nM	0.0759	4.67
